Test results: PMC12373846, “Hemoglobin as a pseudoperoxidase and drug target for oxidative stress-related diseases” (Signal Transduction and Targeted Therapy, 2025)

Assays:
Test in all cases: KINOMEscan
Format in all cases: binding
Details in all cases: 10000 nM; read-out: Percent Control
[1] = molecular target: T1, BMPR2 (Homo sapiens, UniProt Q13873)
T1 construct: purchased DiscoverX KINOMEscan scanEDGE; Eurofins Cerep SafetyScreen87
Method: (§1) The possibility of KDS12025 on kinase off-target, the KINOMEscan panel of scanEDGE assay was conducted in DiscoverX (CA, USA) using a site-directed competition binding with the test compounds. The assay results are given in Supplementary Table 4 and experimental information is available on the DiscoverX web page (www.discoverx.com). Moreover, the Delta SafetyScreen87 panel assay was conducted in Eurofins Discovery (Cerep, France). The assay results are given in Supplementary Table 5 and experimental information is available on the DiscoverX web page (https://www.eurofinsdiscoveryservices.com).

[2] = molecular target: T2, CSF1R (Homo sapiens, UniProt P07333)
T2 construct: purchased DiscoverX KINOMEscan scanEDGE; Eurofins Cerep SafetyScreen87
Method: as §1

[3] = molecular target: T3, SRPK3 (Homo sapiens, UniProt Q9UPE1)
T3 construct: purchased DiscoverX KINOMEscan scanEDGE; Eurofins Cerep SafetyScreen87
Method: as §1

[4] = molecular target: T4, CSNK1D (Homo sapiens, UniProt P48730)
T4 construct: purchased DiscoverX KINOMEscan scanEDGE; Eurofins Cerep SafetyScreen87
Method: as §1

[5] = molecular target: T5, EPHA2 (Homo sapiens, UniProt P29317)
T5 construct: purchased DiscoverX KINOMEscan scanEDGE; Eurofins Cerep SafetyScreen87
Method: as §1

[6] = molecular target: T6, PAK1 (Homo sapiens, UniProt Q13153)
T6 construct: purchased DiscoverX KINOMEscan scanEDGE; Eurofins Cerep SafetyScreen87
Method: as §1

[7] = molecular target: T7, ALK (Homo sapiens, UniProt Q9UM73)
T7 construct: purchased DiscoverX KINOMEscan scanEDGE; Eurofins Cerep SafetyScreen87
Method: as §1

[8] = molecular target: T8, PIK3C2B (Homo sapiens, UniProt O00750)
T8 construct: purchased DiscoverX KINOMEscan scanEDGE; Eurofins Cerep SafetyScreen87
Method: as §1

[9] = molecular target: T9, IGF1R (Homo sapiens, UniProt P08069)
T9 construct: purchased DiscoverX KINOMEscan scanEDGE; Eurofins Cerep SafetyScreen87
Method: as §1

[10] = molecular target: T10, ZAP70 (Homo sapiens, UniProt P43403)
T10 construct: purchased DiscoverX KINOMEscan scanEDGE; Eurofins Cerep SafetyScreen87
Method: as §1

[11] = molecular target: T11, TRKA (Homo sapiens, UniProt P04629)
T11 construct: purchased DiscoverX KINOMEscan scanEDGE; Eurofins Cerep SafetyScreen87
Method: as §1

[12] = molecular target: T12, ERBB4 (Homo sapiens, UniProt Q15303)
T12 construct: purchased DiscoverX KINOMEscan scanEDGE; Eurofins Cerep SafetyScreen87
Method: as §1

[13] = molecular target: T13, FAK (Homo sapiens, UniProt Q05397)
T13 construct: purchased DiscoverX KINOMEscan scanEDGE; Eurofins Cerep SafetyScreen87
Method: as §1

[14] = molecular target: T14, TSSK1B (Homo sapiens, UniProt Q9BXA7)
T14 construct: purchased DiscoverX KINOMEscan scanEDGE; Eurofins Cerep SafetyScreen87
Method: as §1

[15] = molecular target: T15, CDK9 (Homo sapiens, UniProt P50750)
T15 construct: purchased DiscoverX KINOMEscan scanEDGE; Eurofins Cerep SafetyScreen87
Method: as §1

[16] = molecular target: T16, p38-alpha (Homo sapiens, UniProt Q16539)
T16 construct: purchased DiscoverX KINOMEscan scanEDGE; Eurofins Cerep SafetyScreen87
Method: as §1

[17] = molecular target: T17, BTK (Homo sapiens, UniProt Q06187)
T17 construct: purchased DiscoverX KINOMEscan scanEDGE; Eurofins Cerep SafetyScreen87
Method: as §1

[18] = molecular target: T18, YANK3 (Homo sapiens, UniProt Q86UX6)
T18 construct: purchased DiscoverX KINOMEscan scanEDGE; Eurofins Cerep SafetyScreen87
Method: as §1

[19] = molecular target: T19, DYRK1B (Homo sapiens, UniProt Q9Y463)
T19 construct: purchased DiscoverX KINOMEscan scanEDGE; Eurofins Cerep SafetyScreen87
Method: as §1

[20] = molecular target: T20, ULK2 (Homo sapiens, UniProt Q8IYT8)
T20 construct: purchased DiscoverX KINOMEscan scanEDGE; Eurofins Cerep SafetyScreen87
Method: as §1

[21] = molecular target: T21, CHEK1 (Homo sapiens, UniProt O14757)
T21 construct: purchased DiscoverX KINOMEscan scanEDGE; Eurofins Cerep SafetyScreen87
Method: as §1

[22] = molecular target: T22, PDPK1 (Homo sapiens, UniProt O15530)
T22 construct: purchased DiscoverX KINOMEscan scanEDGE; Eurofins Cerep SafetyScreen87
Method: as §1

[23] = molecular target: T23, JNK1 (Homo sapiens, UniProt P45983)
T23 construct: purchased DiscoverX KINOMEscan scanEDGE; Eurofins Cerep SafetyScreen87
Method: as §1

[24] = molecular target: T24, KIT(D816V) (Homo sapiens, UniProt P10721, D816V)
T24 construct: purchased DiscoverX KINOMEscan scanEDGE; Eurofins Cerep SafetyScreen87
Method: as §1

[25] = molecular target: T25, KIT (Homo sapiens, UniProt P10721)
T25 construct: purchased DiscoverX KINOMEscan scanEDGE; Eurofins Cerep SafetyScreen87
Method: as §1

[26] = molecular target: T26, GSK3B (Homo sapiens, UniProt P49841)
T26 construct: purchased DiscoverX KINOMEscan scanEDGE; Eurofins Cerep SafetyScreen87
Method: as §1

[27] = molecular target: T27, ADCK3 (Homo sapiens, UniProt Q8NI60)
T27 construct: purchased DiscoverX KINOMEscan scanEDGE; Eurofins Cerep SafetyScreen87
Method: as §1

[28] = molecular target: T28, IKK-beta (Homo sapiens, UniProt O14920)
T28 construct: purchased DiscoverX KINOMEscan scanEDGE; Eurofins Cerep SafetyScreen87
Method: as §1

[29] = molecular target: T29, FGFR2 (Homo sapiens, UniProt P21802)
T29 construct: purchased DiscoverX KINOMEscan scanEDGE; Eurofins Cerep SafetyScreen87
Method: as §1

[30] = molecular target: T30, MAP3K4 (Homo sapiens, UniProt Q9Y6R4)
T30 construct: purchased DiscoverX KINOMEscan scanEDGE; Eurofins Cerep SafetyScreen87
Method: as §1

[31] = molecular target: T31, ABL1(T315I)-phosphorylated (Homo sapiens, UniProt P00519, T315I)
T31 construct: purchased DiscoverX KINOMEscan scanEDGE; Eurofins Cerep SafetyScreen87
Method: as §1

[32] = molecular target: T32, KIT(V559D,T670I) (Homo sapiens, UniProt P10721, T670I/V559D)
T32 construct: purchased DiscoverX KINOMEscan scanEDGE; Eurofins Cerep SafetyScreen87
Method: as §1

[33] = molecular target: T33, JAK3(JH1domain-catalytic) (Homo sapiens, UniProt P52333)
T33 construct: JAK3(JH1domain-catalytic); purchased DiscoverX KINOMEscan scanEDGE; Eurofins Cerep SafetyScreen87
Method: as §1

[34] = molecular target: T34, MAPKAPK2 (Homo sapiens, UniProt P49137)
T34 construct: purchased DiscoverX KINOMEscan scanEDGE; Eurofins Cerep SafetyScreen87
Method: as §1

[35] = molecular target: T35, PIM1 (Homo sapiens, UniProt P11309)
T35 construct: purchased DiscoverX KINOMEscan scanEDGE; Eurofins Cerep SafetyScreen87
Method: as §1

[36] = molecular target: T36, MET (Homo sapiens, UniProt P08581)
T36 construct: purchased DiscoverX KINOMEscan scanEDGE; Eurofins Cerep SafetyScreen87
Method: as §1

[37] = molecular target: T37, PLK4 (Homo sapiens, UniProt O00444)
T37 construct: purchased DiscoverX KINOMEscan scanEDGE; Eurofins Cerep SafetyScreen87
Method: as §1

[38] = molecular target: T38, BRAF(V600E) (Homo sapiens, UniProt P15056, V600E)
T38 construct: purchased DiscoverX KINOMEscan scanEDGE; Eurofins Cerep SafetyScreen87
Method: as §1

[39] = molecular target: T39, EGFR (Homo sapiens, UniProt P00533)
T39 construct: purchased DiscoverX KINOMEscan scanEDGE; Eurofins Cerep SafetyScreen87
Method: as §1

[40] = molecular target: T40, IKK-alpha (Homo sapiens, UniProt O15111)
T40 construct: purchased DiscoverX KINOMEscan scanEDGE; Eurofins Cerep SafetyScreen87
Method: as §1

T1 sequence (Q13873 27-1038): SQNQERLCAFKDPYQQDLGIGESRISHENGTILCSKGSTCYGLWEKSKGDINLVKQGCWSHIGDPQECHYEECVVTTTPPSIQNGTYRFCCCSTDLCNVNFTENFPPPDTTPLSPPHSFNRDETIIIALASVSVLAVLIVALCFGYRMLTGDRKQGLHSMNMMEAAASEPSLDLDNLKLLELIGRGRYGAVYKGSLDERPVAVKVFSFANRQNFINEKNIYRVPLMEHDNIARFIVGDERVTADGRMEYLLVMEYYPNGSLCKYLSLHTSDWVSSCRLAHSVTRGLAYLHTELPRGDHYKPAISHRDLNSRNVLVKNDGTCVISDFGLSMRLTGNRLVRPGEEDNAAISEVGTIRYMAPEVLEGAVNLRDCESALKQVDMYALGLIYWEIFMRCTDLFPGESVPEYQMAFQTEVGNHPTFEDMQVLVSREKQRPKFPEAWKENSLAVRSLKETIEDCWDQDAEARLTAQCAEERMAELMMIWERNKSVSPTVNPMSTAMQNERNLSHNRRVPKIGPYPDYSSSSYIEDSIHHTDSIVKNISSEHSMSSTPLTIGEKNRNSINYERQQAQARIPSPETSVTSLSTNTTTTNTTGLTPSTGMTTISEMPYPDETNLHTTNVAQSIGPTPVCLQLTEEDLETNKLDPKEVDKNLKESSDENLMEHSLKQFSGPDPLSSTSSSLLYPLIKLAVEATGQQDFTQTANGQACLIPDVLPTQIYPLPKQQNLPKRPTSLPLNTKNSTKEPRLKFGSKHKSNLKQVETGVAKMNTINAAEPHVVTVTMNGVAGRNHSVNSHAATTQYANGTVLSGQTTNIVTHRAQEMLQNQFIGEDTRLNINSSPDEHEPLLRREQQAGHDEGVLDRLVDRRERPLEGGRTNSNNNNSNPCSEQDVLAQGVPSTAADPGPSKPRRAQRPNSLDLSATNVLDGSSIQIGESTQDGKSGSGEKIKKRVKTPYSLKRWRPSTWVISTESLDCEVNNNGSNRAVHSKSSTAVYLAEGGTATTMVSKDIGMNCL
T36 sequence (P08581 25-1390): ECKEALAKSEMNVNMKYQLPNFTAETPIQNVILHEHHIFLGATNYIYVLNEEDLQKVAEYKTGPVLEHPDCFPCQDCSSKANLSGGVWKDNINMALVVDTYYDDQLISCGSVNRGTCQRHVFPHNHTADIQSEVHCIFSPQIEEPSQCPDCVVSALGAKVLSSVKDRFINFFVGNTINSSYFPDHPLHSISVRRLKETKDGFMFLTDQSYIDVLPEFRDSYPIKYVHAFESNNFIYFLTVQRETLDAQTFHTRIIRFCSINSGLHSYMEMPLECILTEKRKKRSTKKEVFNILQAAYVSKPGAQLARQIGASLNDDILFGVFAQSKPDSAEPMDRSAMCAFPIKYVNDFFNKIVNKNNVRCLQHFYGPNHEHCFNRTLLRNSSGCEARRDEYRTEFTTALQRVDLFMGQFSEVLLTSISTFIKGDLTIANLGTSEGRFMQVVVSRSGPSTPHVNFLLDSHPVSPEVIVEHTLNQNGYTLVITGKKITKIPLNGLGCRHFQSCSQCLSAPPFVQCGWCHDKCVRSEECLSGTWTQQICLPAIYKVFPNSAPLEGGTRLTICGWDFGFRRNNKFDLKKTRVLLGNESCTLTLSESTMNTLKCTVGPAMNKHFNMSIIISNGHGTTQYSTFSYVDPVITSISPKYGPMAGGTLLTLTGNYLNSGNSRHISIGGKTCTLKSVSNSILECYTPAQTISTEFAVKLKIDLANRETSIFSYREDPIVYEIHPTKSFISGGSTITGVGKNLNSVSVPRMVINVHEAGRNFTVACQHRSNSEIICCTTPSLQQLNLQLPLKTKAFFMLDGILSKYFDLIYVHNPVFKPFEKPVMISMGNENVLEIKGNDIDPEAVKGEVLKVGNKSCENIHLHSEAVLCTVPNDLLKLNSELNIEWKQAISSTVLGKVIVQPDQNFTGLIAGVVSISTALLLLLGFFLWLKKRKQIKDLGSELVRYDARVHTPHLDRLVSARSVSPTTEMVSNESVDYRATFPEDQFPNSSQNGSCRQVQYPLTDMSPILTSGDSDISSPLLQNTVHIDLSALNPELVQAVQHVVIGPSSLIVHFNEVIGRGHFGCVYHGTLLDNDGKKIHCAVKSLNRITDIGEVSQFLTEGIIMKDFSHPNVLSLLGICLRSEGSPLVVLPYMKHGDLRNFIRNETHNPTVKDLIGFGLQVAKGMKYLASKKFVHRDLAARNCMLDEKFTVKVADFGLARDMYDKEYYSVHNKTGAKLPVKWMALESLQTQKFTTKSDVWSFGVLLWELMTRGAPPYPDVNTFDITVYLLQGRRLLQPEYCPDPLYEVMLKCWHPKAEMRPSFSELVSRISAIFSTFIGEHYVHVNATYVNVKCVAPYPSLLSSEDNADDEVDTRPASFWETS
T24 sequence (P10721 26-976 D816V): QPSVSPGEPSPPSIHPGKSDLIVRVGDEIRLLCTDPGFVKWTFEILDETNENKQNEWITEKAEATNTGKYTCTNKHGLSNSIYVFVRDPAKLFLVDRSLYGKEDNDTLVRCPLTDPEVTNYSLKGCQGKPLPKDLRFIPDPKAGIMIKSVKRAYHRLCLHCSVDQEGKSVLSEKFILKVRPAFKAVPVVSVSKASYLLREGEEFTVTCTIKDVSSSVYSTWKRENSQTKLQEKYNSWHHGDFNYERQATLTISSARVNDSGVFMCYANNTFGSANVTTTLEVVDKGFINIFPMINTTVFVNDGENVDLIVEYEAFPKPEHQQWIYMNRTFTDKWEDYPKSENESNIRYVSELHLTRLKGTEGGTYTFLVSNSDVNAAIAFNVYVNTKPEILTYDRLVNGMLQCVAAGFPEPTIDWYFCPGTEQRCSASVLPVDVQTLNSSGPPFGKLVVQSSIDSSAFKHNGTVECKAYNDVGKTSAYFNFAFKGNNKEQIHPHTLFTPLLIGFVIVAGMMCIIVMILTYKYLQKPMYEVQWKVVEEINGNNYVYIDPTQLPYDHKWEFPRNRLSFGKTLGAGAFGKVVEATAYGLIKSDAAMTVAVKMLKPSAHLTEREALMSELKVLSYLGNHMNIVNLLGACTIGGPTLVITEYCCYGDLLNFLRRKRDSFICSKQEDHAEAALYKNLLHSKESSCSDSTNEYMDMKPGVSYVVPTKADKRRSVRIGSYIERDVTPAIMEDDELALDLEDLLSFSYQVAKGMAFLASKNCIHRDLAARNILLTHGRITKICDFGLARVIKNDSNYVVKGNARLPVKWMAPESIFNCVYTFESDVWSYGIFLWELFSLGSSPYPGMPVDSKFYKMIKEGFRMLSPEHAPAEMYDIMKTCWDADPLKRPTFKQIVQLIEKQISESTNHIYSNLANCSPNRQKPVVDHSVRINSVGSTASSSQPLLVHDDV
T7 sequence (Q9UM73 19-1620): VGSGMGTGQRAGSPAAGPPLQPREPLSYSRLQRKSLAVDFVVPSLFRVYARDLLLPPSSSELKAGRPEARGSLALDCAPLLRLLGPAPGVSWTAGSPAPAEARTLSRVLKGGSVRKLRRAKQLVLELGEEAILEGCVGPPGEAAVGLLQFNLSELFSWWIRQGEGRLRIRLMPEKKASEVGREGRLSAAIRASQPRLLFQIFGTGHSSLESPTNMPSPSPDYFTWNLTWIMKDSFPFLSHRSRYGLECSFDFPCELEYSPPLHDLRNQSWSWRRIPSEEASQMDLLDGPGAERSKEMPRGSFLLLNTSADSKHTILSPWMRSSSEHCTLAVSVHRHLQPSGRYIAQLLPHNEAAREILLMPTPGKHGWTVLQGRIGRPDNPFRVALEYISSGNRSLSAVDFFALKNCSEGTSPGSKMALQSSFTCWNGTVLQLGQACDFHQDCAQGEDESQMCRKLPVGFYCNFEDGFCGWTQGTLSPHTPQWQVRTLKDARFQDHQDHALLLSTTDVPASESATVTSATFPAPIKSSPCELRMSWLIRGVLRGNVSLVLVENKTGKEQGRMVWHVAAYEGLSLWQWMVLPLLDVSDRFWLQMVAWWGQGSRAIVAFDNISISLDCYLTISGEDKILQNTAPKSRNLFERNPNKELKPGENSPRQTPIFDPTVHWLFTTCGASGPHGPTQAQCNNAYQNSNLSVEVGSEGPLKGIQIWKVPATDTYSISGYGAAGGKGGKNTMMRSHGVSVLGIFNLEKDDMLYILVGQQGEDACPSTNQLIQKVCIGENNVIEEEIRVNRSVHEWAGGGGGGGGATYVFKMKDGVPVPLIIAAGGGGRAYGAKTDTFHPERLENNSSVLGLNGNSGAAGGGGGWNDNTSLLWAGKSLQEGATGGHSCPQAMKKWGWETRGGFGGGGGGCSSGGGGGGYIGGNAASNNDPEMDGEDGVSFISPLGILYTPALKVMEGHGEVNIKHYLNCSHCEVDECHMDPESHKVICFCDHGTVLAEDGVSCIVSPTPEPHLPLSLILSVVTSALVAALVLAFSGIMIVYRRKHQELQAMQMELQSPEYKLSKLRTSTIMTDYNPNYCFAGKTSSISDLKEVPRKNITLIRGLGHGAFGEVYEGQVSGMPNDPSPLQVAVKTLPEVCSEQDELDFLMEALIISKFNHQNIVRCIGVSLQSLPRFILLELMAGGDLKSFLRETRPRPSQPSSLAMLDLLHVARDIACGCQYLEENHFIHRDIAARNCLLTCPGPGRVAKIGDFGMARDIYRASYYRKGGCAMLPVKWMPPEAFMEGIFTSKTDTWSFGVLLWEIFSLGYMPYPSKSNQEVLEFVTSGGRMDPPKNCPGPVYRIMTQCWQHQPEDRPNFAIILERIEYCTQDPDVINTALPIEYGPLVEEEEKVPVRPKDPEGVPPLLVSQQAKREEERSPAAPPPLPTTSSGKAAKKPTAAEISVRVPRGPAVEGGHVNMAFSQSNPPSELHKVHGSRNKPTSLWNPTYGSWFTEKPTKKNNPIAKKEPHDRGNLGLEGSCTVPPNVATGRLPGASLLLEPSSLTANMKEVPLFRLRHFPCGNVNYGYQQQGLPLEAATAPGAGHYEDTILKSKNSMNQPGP
T25 sequence (P10721 26-976): as the sequence (P10721 26-976 D816V) above, with V791D counted along it
T32 sequence (P10721 26-976 V559D/T670I): as the sequence (P10721 26-976 D816V) above, with V534D, T645I, V791D counted along it

In the case of `CNc1ccc(NCCc2ccccc2OC)cc1.Cl` [KDS12025, N^1-(2-methoxyphenethyl)-N^4-methylbenzene-1,4-diamine hydrochloride salt], the remaining binding at 10 µM [1] is reported as 92%, the remaining binding at 10 µM [2] is reported as 100% and the remaining binding at 10 µM [3] is reported as 91%. The remaining binding at 10 µM [4] was 88%, the remaining binding at 10 µM [5] was 89% and the remaining binding at 10 µM [6] was 75%. The remaining binding at 10 µM [7] was 98%, the remaining binding at 10 µM [8] was 91% and the remaining binding at 10 µM [9] was 84%. For the same compound, the remaining binding at 10 µM [10] was 88%, the remaining binding at 10 µM [11] was 100% and the remaining binding at 10 µM [12] was 92%. The remaining binding at 10 µM [13] was 100%, the remaining binding at 10 µM [14] was 45% and the remaining binding at 10 µM [15] was 83%. For the same compound, the remaining binding at 10 µM [16] was 100%, the remaining binding at 10 µM [17] was 100% and the remaining binding at 10 µM [18] was 83%. The remaining binding at 10 µM [19] was 67%, the remaining binding at 10 µM [20] was 95% and the remaining binding at 10 µM [21] was 82%. The remaining binding at 10 µM [22] was 56%, the remaining binding at 10 µM [23] was 75% and the remaining binding at 10 µM [24] was 91%. For the same compound, the remaining binding at 10 µM [25] was 90%, the remaining binding at 10 µM [26] was 95% and the remaining binding at 10 µM [27] was 93%. For the same compound, the remaining binding at 10 µM [28] was 100%, the remaining binding at 10 µM [29] was 87% and the remaining binding at 10 µM [30] was 100%. It also gave a remaining binding at 10 µM [31] of 84%, a remaining binding at 10 µM [32] of 94% and a remaining binding at 10 µM [33] of 76%. The remaining binding at 10 µM [34] was 75%, the remaining binding at 10 µM [35] was 95% and the remaining binding at 10 µM [36] was 82%. It also gave a remaining binding at 10 µM [37] of 77%, a remaining binding at 10 µM [38] of 100% and a remaining binding at 10 µM [39] of 48%. For the same compound, the remaining binding at 10 µM [40] was 100%.
